# What was measured:
# CD90 expression in CDCs = assay: Flow cytometry of CD90 expression in CDCs; type: cell-based, human
# Experimental: Referring to FIG. 2, CDCs from two donors (Donor1 and Donor12) were prepared as described herein. The attached CDCs were treated with 30 μM CHIR (Selleckchem, Cat. #S1263), a GSK3β inhibitor, or with no treatment for 72 hours. The cells were then collected, washed with 1% bovine serum albumin (BSA) in 1× phosphated-buffered saline (PBS), and stained with FITC Mouse Anti-Human CD90 (BD Biosciences, Cat. #555595). Flow cytometry was then conducted in BD FACSCanton™ II machine to measure CD90 expression in cells.
# (§1) Referring to FIG. 9B, CDCs from Donor 5 were treated with different concentrations of BIO (Sigma-Aldaich, Cat #B1685), a GSK3β inhibitor, for 72 hours. The cells were then collected and lysed with 1× lysis buffer supplied Total β-catenin ELISA (Affymetrix eBioscience InstantOne™ ELISA, Cat. #85-86141-11). Total β-catenin ELISA was performed as per manufacturer's instructions, except that 0.01 mg/mL final protein concentration was used in the assay.
# Flow cytometry. Cells were harvested and counted (2×10^5 cells per condition). Cells were washed with 1% bovine serum albumin (BSA) in 1× Phosphated-buffered saline (PBS), and stained with the appropriate antibody (BD Pharmingen) for 1 hr at 4° C. The cells were then washed again and resuspended in 1% BSA in 1×PBS. BD Cytofix/Cytoperm™ kit was used for cell permeabilization before staining, such as LRP5/6 staining. […]
# [1] = system: mice with acute myocardial infarction; assay: Mouse model of acute myocardial infarction, change in left ventricular ejection fraction (echocardiography); type: in vivo, mouse (SCID beige); details: 0.1 mg drug injected to heart; measured three weeks after surgery
# Experimental: Briefly, 8-week old male severe combined immunodeficient (SCID) beige mice were anesthetized with isoflurane. Following surgical preparation, a 2 cm vertical incision was performed in the midclavicular line for a lateral thoracotomy. The left anterior descending was ligated using 7-0 silk. Animals then received intramyocardial injections of injected at two peri-infarct sites with 10^5 cells (or phosphate buffered saline as a vehicle) in a total of 20 μl (10 μl/site). Echocardiography measurements were taken (to measure change left ventricular ejection fraction) at day 1 post and week 3 post infarction.
# Acute myocardial infarction was applied to the three-month-old male severe combined immunodeficient (SCID)—beige mice as previously described. 1×10^5 desired cells or 20 μl of 14 mM drug (BIO or JW67) or exosomes were injected to the SCID heart for rescuing.
# Echocardiography. Echocardiography study was performed in the SCID beige in 24 hr (baseline) and 3 weeks after surgery using Vevo 3100 or 770 Imaging System (Visual Sonics) as described^8. The average of the left ventricular ejection fraction was analyzed from multiple left ventricular end-diastolic and left ventricular end-systolic measurements.
# [2] = system: β-catenin levels in explant-derived cells (EDCs); assay: β-catenin ELISA in explant-derived cells (EDCs); type: cell-based, human; details: EDCs from Donor1 and Donor12; BIO for 72 hours compared with sphere formation
# β-catenin levels in CDCs = assay: Total β-catenin ELISA in CDCs; type: cell-based, human
# Experimental: as §1
# Referring to FIG. 10, the effect of BIO (as measured by sustained β-catenin activation per ELISA) was measured in CDCs from Donor10. Zero hour is immediately drug wash-off time point following a 72 hour of 5 μM BIO treatment period.
# (§2) Cell lysate and protein assay. 4×10^5 cells were collected and pelleted at 1,000 rpm for 5 min at 4° C. Cell pellets were thoroughly mixed with 1× lysis buffer (Affymetrix eBioscience InstantOne ELISA kit) by vortexing and rotating for 10 min at room temperature. Protein lysate was isolated from the cell lysate mixture after centrifugation at 14,000 rpm for 15 min at 4° C. Protein concentration was determined by DC™ Protein Assay kit (Bio-Rad).
# (§3) ELISA. Protein collection and protein concentration determination were as described above. Total β-catenin ELISA was performed according the protocol described with final sample concentration of 0.01 mg/ml and positive control of 0.1 mg/ml (ThermoFisher eBioscience InstantOne™ ELISA).
# [3] = system: β-catenin levels in kidney cortex cells; assay: β-catenin levels in kidney cortex cells; type: cell-based; details: FIG. 18B
# [4] = system: β-catenin levels in immortalized CDCs; assay: Total β-catenin ELISA in immortalized CDCs; type: cell-based, human; details: SV40 T+t immortalized CDCs from Donor2; 5 μM BIO for 72 hours vs 0 μM
# Experimental: as §2, §3
# [5] = system: CD90 expression in immortalized CDCs; assay: Flow cytometry of CD90 expression in immortalized CDCs; type: cell-based, human; details: Wnt3a for 72 hours, vs vehicle
# Experimental: Referring to FIG. 3-5, CDCs from immortalized Donor2 were plated on either fibronectin (FN; VWR, Cat. #356009)-coated or CellBIND® (CB)-coated flasks. Attached cells were treated with Wnt3a or with PBS vehicle (ddH2O) for 72 hours. The cells were then analyzed using flow cytometry for CD90 expression with the same protocol as described herein.
# Flow cytometry. Cells were harvested and counted (2×10^5 cells per condition). Cells were washed with 1% bovine serum albumin (BSA) in 1× Phosphated-buffered saline (PBS), and stained with the appropriate antibody (BD Pharmingen) for 1 hr at 4° C. The cells were then washed again and resuspended in 1% BSA in 1×PBS. BD Cytofix/Cytoperm™ kit was used for cell permeabilization before staining, such as LRP5/6 staining. The flow cytometry was performed in BD FACSCanto™ II machine.
molecule,measurement,setting,value
"Cc1cnc(-c2cnc(NCCNc3ccc(C#N)cn3)nc2-c2ccc(Cl)cc2Cl)[nH]1 [CHIR, 6-[[2-[[4-(2,4-Dichlorophenyl)-5-(5-methyl-1H-imidazol-2-yl)-2-pyrimidinyl]amino]ethyl]amino]-3-pyridinecarbonitrile]",CD90 levels,"CD90 expression in CDCs; 30 μM CHIR for 72 hours, CDCs from Donor1 and Donor12, vs no treatment",decreased the CD90 levels
"O=C1Nc2ccccc2C12OCC1(CO2)COC2(OC1)C(=O)Nc1ccccc12 (centres unmarked) [JW67, Trispiro[3H-indole-3,2′-[1,3]dioxane-5′5″-[1,3]dioxane-2″,3′″-[3H]indole]-2,2′″(1H,1′″H)-dione(9Cl)]",cardiac recovery (cardiac ejection fraction change),[1],improves cardiac recovery
"O=C1Nc2cc(Br)ccc2/C1=C1/Nc2ccccc2/C1=N\O [BIO, 6-bromoindirubin-3′-oxime]",CD90 levels,"CD90 expression in CDCs; CDCs from Donor5, increasing BIO concentrations",decreasing CD90 levels with increasing BIO concentrations
same,cardiac recovery (cardiac ejection fraction change),[1],improves cardiac recovery
same,β-catenin expression,[2],equal or better enhanced β-catenin expression
same,levels of β-catenin,"β-catenin levels in CDCs; CDCs from Donor5, different concentrations of BIO for 72 hours",increased with increasing BIO concentration
same,time of peak β-catenin activation after drug washout,"β-catenin levels in CDCs; CDCs from Donor10, after 72 hour 5 μM BIO treatment",24 h
same,duration of effect of BIO treatment after washout,"β-catenin levels in CDCs; FIG. 10, β-catenin activation per ELISA",at least 24 hours
same,β-catenin restoration,"β-catenin levels in CDCs; non-potent CDCs from Donor5, 10 μM BIO for 72 hours vs 0 μM",successful β-catenin restoration
same,β-catenin restoration,"β-catenin levels in CDCs; non-potent CDCs from Donor6-2, 5 μM BIO for 72 hours vs control vehicle",successful β-catenin restoration
same,β-catenin levels,[3],further increases β-catenin levels
same,β-catenin restoration,[4],successful β-catenin restoration
"Wnt3a: activator of the Wnt signaling pathway (protein, UniProt P56704 19-352, looked up) Protein Wnt-3a: SYPIWWSLAVGPQYSSLGSQPILCASIPGLVPKQLRFCRNYVEIMPSVAEGIKIGIQECQHQFRGRRWNCTTVHDSLAIFGPVLDKATRESAFVHAIASAGVAFAVTRSCAEGTAAICGCSSRHQGSPGKGWKWGGCSEDIEFGGMVSREFADARENRPDARSAMNRHNNEAGRQAIASHMHLKCKCHGLSGSCEVKTCWWSQPDFRAIGDFLKDKYDSASEMVVEKHRESRGWVETLRPRYTYFKVPTERDLVYYEASPNFCEPNPETGSFGTRDRTCNVSSHGIDGCDLLCCGRGHNARAERRREKCRCVFHWCCYVSCQECTRVYDVHTCK",CD90 level,[5]; immortalized Donor2 CDCs on CellBIND (CB)-coated flasks,no such effect is observed
same,CD90 level,[5]; immortalized Donor2 CDCs on fibronectin (FN)-coated flasks,decreased the CD90 level

# Reference: US20210032598A1, “ACTIVATION-INDUCED TISSUE-EFFECTOR CELLS SUITABLE FOR CELL THERAPY AND EXTRACELLUAR VESICLES DERIVED THEREFROM” (Capricor, Inc., priority 2018, published 2021)
